In patent US4599228A, “Antimicrobial agent” (Vipont Laboratories, Inc., priority 1984, dated 1986):
Entries after “also recorded” stand apart in the source; their conditions may differ. Like-named read-outs stand apart in the source and are kept apart here.

Assays:
fungi and protozoa = settings: in solution; cited from earlier work
Bacillus subtilis = assay: Mean inactivating dose in vitro; format: cell-based; settings: per ml of media
Procedure: (§1) In order to illustrate the antimicrobial effectiveness of the composition according to the present invention, a series of in vitro and in vivo tests were performed.

Escherichia coli [1] = assay: Mean inactivating dose in vitro; format: cell-based; settings: per ml of media
Procedure: as §1

Klebsiella pneumoniae = assay: Mean inactivating dose in vitro; format: cell-based; settings: per ml of media
Procedure: as §1

Proteus vulgaris = assay: Mean inactivating dose in vitro; format: cell-based; settings: per ml of media
Procedure: as §1

Pseudomonas aeruginosa = assay: Mean inactivating dose in vitro; format: cell-based; settings: per ml of media
Procedure: as §1

Saccharomyces cerevisiae = assay: Mean inactivating dose in vitro; format: cell-based; settings: per ml of media
Procedure: as §1

Staphylococcus aureus [2] = assay: Mean inactivating dose in vitro; format: cell-based; settings: per ml of media
Procedure: as §1

Streptococcus faecalis = assay: Mean inactivating dose in vitro; format: cell-based; settings: per ml of media
Procedure: as §1

Streptococcus mutans [3] = assay: Mean inactivating dose in vitro; format: cell-based; settings: per ml of media
Procedure: as §1

[4] = test system: gingivitis, plaque and pocket depth in dogs; assay: Oral Clinical Studies - Beagles (dogs); format: in vivo, beagle dogs; set-up: Mean Gingivitis Scores / Mean Plaque Scores: scale not given here; settings: for Mean Gingivitis Scores / Mean Plaque Scores / Mean Pocket Depths / gingivitis, activity in words / return of dental plaque, activity in words: beagles; for Mean Gingivitis Scores / Mean Plaque Scores / Mean Pocket Depths: 0.1% sanguinarine chloride and/or 2.7% zinc chloride; for gingivitis, activity in words / return of dental plaque, activity in words: four weeks of treatment
Procedure: The dogs were treated topically once daily with the respective test formulation.

microorganisms = assay: General antimicrobial activity in vitro; format: cell-based
Description: When zinc chloride was replaced with a fluoride salt in the present preparations, the activity of the preparation against microorganisms believed to be associated with the causation of dental caries and periodontal disease (Streptococcus mutans), as well as other microorganisms, remained identical.

infection = assay: In vivo antimicrobial action and tolerability (clinical studies)
Candida albicans = assay: Inhibitory concentration in vitro, separate test; format: cell-based
Procedure: (§2) A separate test was conducted to determine the inhibitory concentration of sanguinarine chloride alone. These concentrations, for microorganisms in vitro, are as follows: […]

Escherichia coli [5] = assay: Inhibitory concentration in vitro, separate test; format: cell-based
Procedure: as §2

Staphylococcus aureus [6] = assay: Inhibitory concentration in vitro, separate test; format: cell-based
Procedure: as §2

Streptococcus mutans [7] = assay: Inhibitory concentration in vitro, separate test; format: cell-based
Procedure: as §2

[8] = test system: plaque forming microorganisms freshly collected from human dental plaque; assay: Dental plaque reduction in vitro; format: cell-based
[9] = test system: dental plaque / plaque forming microorganisms; assay: In vivo plaque, gingivitis and periodontal disease treatment of dogs and humans
[10] = 0 (start), baseline, topical once daily
[11] = after 4 weeks, topical once daily, untreated 0.91
[12] = after 4 weeks, topical once daily, untreated 1.458
[13] = after 4 weeks, topical once daily, untreated 12.408

In the case of `C[n+]1cc2c3c(ccc2c2ccc4cc5c(cc4c21)OCO5)OCO3` [sanguinarine], the “antifungal and antiprotozoan properties” value (fungi and protozoa) is listed as “some antifungal and antiprotozoan properties”.
In the case of `[Cl-].[Cl-].[Zn+2]` [Zinc chloride, zinc chloride, reference compound], the Mean inactivating dose (Bacillus subtilis) is reported as 25,000 μg/ml, the Mean inactivating dose (Escherichia coli [1]) is reported as 6,250 μg/ml and the Mean inactivating dose (Klebsiella pneumoniae) is reported as 3,125 μg/ml. The Mean inactivating dose (Proteus vulgaris) was 12,500 μg/ml, the Mean inactivating dose (Pseudomonas aeruginosa) was 3,500 μg/ml and the Mean inactivating dose (Saccharomyces cerevisiae) was 6,250 μg/ml. The Mean inactivating dose (Staphylococcus aureus [2]) was 6,250 μg/ml, the Mean inactivating dose (Streptococcus faecalis) was 25,000 μg/ml and the Mean inactivating dose (Streptococcus mutans [3]) was 1,563 μg/ml. The “Mean Gingivitis Scores” value [4, 10] was 0.44, the “Mean Plaque Scores” value [4, 10] was 8.76 and the “Mean Pocket Depths” value [4, 10] was 1.46. The “Mean Gingivitis Scores” value [4, 11] was 0.75, the “Mean Pocket Depths” value [4, 12] was 1.37 and the “Mean Plaque Scores” value [4, 13] was 10.15. The “gingivitis, activity in words” value [4] was “slightly active”, the “return of dental plaque, activity in words” value [4] was “slightly preventive” and the antimicrobial properties (microorganisms) was “antimicrobial properties only in high concentrations”. The “speed of action in vivo” value (infection) was “slow acting in vivo as an antimicrobial agent” and the “tissue damage / undesirable side effects” value (infection; concentrations required for antimicrobial action) was “caused blanching of tissue and, in some cases, chemical burns and other tissue damage”.
Compound `C[n+]1cc2c3c(ccc2c2ccc4cc5c(cc4c21)OCO5)OCO3` [Sanguinarine chloride, sanguinarine chloride] has an MIC (Candida albicans) of 100 µg/mL, an MIC (Escherichia coli [5]) of 100 µg/mL and an MIC (Staphylococcus aureus [6]) of 10 µg/mL. The MIC (Streptococcus mutans [7]) was 50 µg/mL, the “comparison with chlorhexidine (Hibitane), inhibition of plaque forming microorganisms” value [8] was “compared favorably in vitro to chlorhexidine” and the “reduction of dental plaque” value ([8]; 25 micrograms per milliliter) was 100%. The “effect against plaque forming microorganisms in vivo” value ([9]; in vivo) was “ineffective against plaque forming microorganisms”, the “effect on dental plaque, gingivitis and periodontal disease” value ([9]; repeated or continuous treatment of affected area, dogs and humans) was “did not reduce dental plaque or alleviate the symptoms of gingivitis or periodontal disease; also recorded: did not prevent the accumulation of dental plaque on teeth or prevent the occurrence of periodontal disease” and the “Mean Gingivitis Scores” value [4, 10] was 0.495. The “Mean Plaque Scores” value [4, 10] was 8.885, the “Mean Pocket Depths” value [4, 10] was 1.415 and the “plaque and gingivitis scores, rank among groups” value ([4]; 24 male beagle dogs, after four weeks, topical once daily) was “highest”. For the same compound, the “Mean Gingivitis Scores” value [4, 11] was 0.942, the “Mean Pocket Depths” value [4, 12] was 1.48 and the “Mean Plaque Scores” value [4, 13] was 12.89. For the same compound, the “gingivitis, activity in words” value [4] was “no activity in vivo at all”, the “return of dental plaque, activity in words” value [4] was “not active in vivo” and the antimicrobial properties (microorganisms) was “strong antimicrobial properties”. The antimicrobial properties (microorganisms; listed as sanguinarine chloride) was “quite effective against microorganisms” and the “in vivo effectiveness / antimicrobial action” value (infection) was “only slightly effective or not at all; also recorded: only slightly antimicrobial, very slow acting, or had no effect on the course of the infection at all”.
For `COc1ccc2c(c[n+](C)c3c4cc5c(cc4ccc23)OCO5)c1OC` [chelerythrine chloride], the antimicrobial properties (microorganisms) was “strong antimicrobial properties”.
